Experiments:
[1] = Serum total cholesterol assay in mice; type: in vivo, mouse
Protocol: (§1) Six mice per subgroup were obtained finally.
Serum glucose, triglyceride, cholesterol assay: Blood samples from each mouse were collected and serum was separated by centrifugation for the measurement of levels of glucose, triglyceride and total cholesterol. Serum glucose concentrations were analyzed using Glucose (HK) Assay Kit (Sigma-aldrich, Saint Louis, Mo., USA). Serum triglyceride concentrations were analyzed using Serum Triglyceride Determination Kit (Sigma-aldrich, Saint Louis, Mo., USA). Serum cholesterol concentrations were analyzed using Amplex® Red Cholesterol Assay Kit (Invitrogen, Carlsbad, Calif., USA). All experimental assays were done according to the manufacturer's instructions.

[2] = Body weight gain, high-fat diet-induced obesity mice and normal diet mice; type: in vivo, mouse
Description: as §1

GATA-2 [3] = test: Immunoblot, GATA-2 protein in epididymal fat of FD mice; type: in vivo, mouse; conditions: berberine treatment
Protocol: (§2) RNA and protein purification and quantification from epididymal fat tissues: RNA and protein was isolated from 60 mg of epididymal fat tissues with Trizol (Invitrogen, Carlsbad, Calif., USA) following the protocol recommended by the manufacturers. RNA was dissolved in pure water and quantified at 260/280 nm, and sample integrity was checked by 1.5% agarose gel electrophoresis. Protein concentration was determined using the Micro BCA Protein Assay Kit (Fisher Scientific, Pittsburgh, Pa., USA) according to the manufacturer's instructions.
Immunoblot Analysis: Protein expression of GATA-2, GATA-3, PPARγ and C/EBPα in the control of β-actin was assessed by Western Blot. Protein samples from the same group were homogenized as previously reported (Hu and Davies, Phytomedicine (2009) 16:864-873). Protein (25 μg) was separated by polyacrylamide gel electrophoresis using the BioRad Electrophoretic System (60 V for 1 h followed by 90 V for 5 h). The proteins were then transferred to nitrocellulose membranes at 35 V overnight. […]

GATA-2 [4] = test: Real-Time RT-PCR, GATA-2 mRNA in epididymal fat of FD mice; type: in vivo, mouse
Protocol: as §2
(§3) Quantitative Real-Time RT-PCR: Real-Time reverse transcriptase polymerase chain reaction (RT-PCR) analysis was used to measure mRNA expression of genes PPARγ, C/EBPα, GATA-2 and GATA-3 in the control of β-actin. Total RNA (0.8 μg) from each sample was used for a reverse transcription reaction using the TaqMan Reverse Transcription Reagents (Applied Biosystems, Foster City, Calif., USA) following the manufacturer's instructions. PCR was done using the SYBR green Master Mix (Applied Biosystems, Foster City, Calif., USA) following the manufacturer's instructions. The cycling conditions of amplification were as follows: an initial step of denaturation at 95° C. for 10 min, 40 cycles of denaturation at 95° C. for 30 s, annealing at 55° C. for 30 s, and elongation at 72° C. for 30 s. Real-Time PCR was performed using Mx3000P Real-Time Thermocyclers (Stratagene, La Jolla, Calif., USA). The relative mRNA levels of these genes were calculated by 2-delta delta CT method and normalized with control-treated groups.

GATA-3 = test: Immunoblot, GATA-3 protein in epididymal fat of FD mice; type: in vivo, mouse
Protocol: as §2
Immunoblot Analysis: Protein expression of GATA-2, GATA-3, PPARγ and C/EBPα in the control of β-actin was assessed by Western Blot. Protein samples from the same group were homogenized as previously reported (Hu and Davies, Phytomedicine (2009) 16:864-873). Protein (25 μg) was separated by polyacrylamide gel electrophoresis using the BioRad Electrophoretic System (60 V for 1 h followed by 90 V for 5 h). The proteins were then transferred to nitrocellulose membranes at 35 V overnight. The membrane was blocked for 1 h at room temperature in 5% nonfat milk in Tris-buffered saline (TBS), then washed with Tween-20-TBS (TTBS, 0.1% Tween-20) three times (15 min, 5 min, 5 min), followed by incubation with primary antibodies mouse GATA-2, GATA-3 (dilution 1:200), PPARγ, C/EBPα and β-actin (dilution 1:500) at room temperature for 2 h (all antibodies were purchased from Santa Cruz Biotechnology, Santa Cruz, Calif., USA). The membrane was rinsed three times (15 min, 5 min, 5 min), then incubated at room temperature for 1 h with horseradish peroxidase-conjugated second antibody (1:10,000). The membrane was then incubated in ECL reagent (GE Healthcare, Piscataway, N.J., USA) for 1 min. Protein was visualized using the UVP image analysis system (UVP, Upland, Calif., USA).

PPARγ = test: Real-Time RT-PCR, PPARγ mRNA in epididymal fat of FD mice; type: in vivo, mouse
Protocol: as §2, §3

C/EBPα = test: Real-Time RT-PCR, C/EBPα mRNA in epididymal fat of FD mice; type: in vivo, mouse
Protocol: as §2, §3

in vitro = conditions: mouse, 3T3-L1 cells during differentiation
Protocol: Cell culture: 3T3-L1 cells were cultured at 37° C. in a humidified 5% CO2 atmosphere and grown in a culture medium (CM) (DMEM supplemented with 10% FBS, 100 units/ml penicillin and […] streptomycin). Differentiation conditions for 3T3-L1 were as described (Dowell et al, 2000). Briefly, confluent 3T3-L1 cells were maintained in culture medium for 48 hrs (day 0). Cells were placed in Differentiation Medium 1 (DM1) (CM with 167 nM insulin, 520 μM isobutylmethylxanthine (IBMX), and 1 μM dexamethasone) for a further 48 hrs (Day 2). The medium was then changed to differentiation medium 2 (DM2) (CM with 167 nM insulin) for a further 48 hrs (Day 4). The DM2 was then changed every 48 hrs for an additional 4 days (Day 8).
Culture medium was removed at 24, 48 and 72 hrs and MTT (0.5 mg/ml in pure DMEM, 50 μl/well) was added.

Question: Which “reduction of serum total cholesterol level” value ([1]; FD mice, 0.75 mg/kg/day) does the source give for `COc1ccc2cc3[n+](cc2c1OC)CCc1cc2c(cc1-3)OCO2.[Cl-]` [berberine, Berberine (Chloride Form)] here?
Answer: 18.7%

Question: And the “serum total cholesterol level” value ([1]; FD mice, 0.75 mg/kg/day, 36 days (control 152.4±15.2))?
Answer: 123.9 ± 16.5 mg/dL

Question: What about the “reduction of serum total cholesterol level” value ([1]; FD mice, 1.5 mg/kg/day) of the same compound?
Answer: 22.2%

Question: What about the “serum total cholesterol level” value ([1]; FD mice, 1.5 mg/kg/day, 36 days) of the same compound?
Answer: 118.5 ± 14.7 mg/dL

Question: And the “reduction of serum total cholesterol level” value ([1]; FD mice, 3 mg/kg/day)?
Answer: 28%

Question: What about the “serum total cholesterol level” value ([1]; FD mice, 3 mg/kg/day, 36 days) of the same compound?
Answer: 109.8 ± 22.7 mg/dL

Question: And the “serum total cholesterol level” value ([1]; ND mice, 3 mg/kg/day (control 96.5±16.5))?
Answer: 97.4 ± 18.3 mg/dL

Question: What about the body weight gain ([2]; FD mice, 0.75 mg/kg/day i.p., 36 days (control 4.3±0.6)) of the same compound?
Answer: 1.5±0.7 g/mouse

Question: What about the body weight gain ([2]; FD mice, 1.5 mg/kg/day i.p., 36 days) of the same compound?
Answer: 1.9±0.7 g/mouse

Question: And the body weight gain ([2]; FD mice, 3 mg/kg/day i.p., 36 days)?
Answer: 1.4±0.5 g/mouse

Question: What about the body weight gain ([2]; ND mice, 3 mg/kg/day i.p., 36 days (control 2.3±0.9)) of the same compound?
Answer: 2.5±0.7 g/mouse

Question: What about the “quantitative protein expression of GATA-2” value (GATA-2 [3]) of the same compound?
Answer: did not appear to be significantly changed

Question: What about the “GATA-2 mRNA expression increased to” value (GATA-2 [4]; 0.75 mg/kg/day) of the same compound?
Answer: 2.7 fold

Question: And the “GATA-2 mRNA expression increased to” value (GATA-2 [4]; 1.5 mg/kg/day)?
Answer: 3.4 fold

Question: And the “GATA-2 mRNA expression increased to” value (GATA-2 [4]; 3 mg/kg/day)?
Answer: 3.7 fold

Question: And the “GATA-3 protein expression increased to” value (GATA-3; 0.75 mg/kg/day)?
Answer: 2.2 fold

Question: What about the “GATA-3 protein expression increased to” value (GATA-3; 1.5 mg/kg/day) of the same compound?
Answer: 2.5 fold

Question: What about the “GATA-3 protein expression increased to” value (GATA-3; 3 mg/kg/day) of the same compound?
Answer: 6.9 fold

Question: And the “reduction of PPARγ mRNA expression vs control treated group” value (from here on “reduction of PPARγ mRNA expression”) (PPARγ; 0.75 mg/kg/day)?
Answer: 56.1%

Question: What about the “reduction of PPARγ mRNA expression” value (PPARγ; 1.5 mg/kg/day) of the same compound?
Answer: 57.7%

Question: And the “reduction of PPARγ mRNA expression” value (PPARγ; 3 mg/kg/day)?
Answer: 78.3%

Question: What about the “decrease of C/EBP-α mRNA expression vs control group” value (“decrease of C/EBP-α mRNA expression” for short) (C/EBPα; 0.75 mg/kg/day) of the same compound?
Answer: 46.4%

Question: And the “decrease of C/EBP-α mRNA expression” value (C/EBPα; 1.5 mg/kg/day)?
Answer: 66.1%

Question: And the “decrease of C/EBP-α mRNA expression” value (C/EBPα; 3 mg/kg/day)?
Answer: 72.7%

Question: What about the cytotoxicity at 2 days, 8 μM (in vitro) of the same compound?
Answer: 15.6%

Question: What about the cytotoxicity at 4 days, 8 μM (in vitro) of the same compound?
Answer: 12.8%

Question: What about the cytotoxicity at 6 days, 8 μM (in vitro) of the same compound?
Answer: 12.6%

Question: And the cytotoxicity at 8 days, 8 μM (in vitro)?
Answer: 11.4%

Source: US20110281852A1 (priority 2010, published 2011)
